Molecules are shown by their SMILES.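 These data come from cells grown in 96-well plates and exposed to compound for 48 hours at five concentrations. The concentration for 50% growth inhibition is given as GI50. The concentration for full growth arrest is given as TGI.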

Some test systems named below: MDA-N; MCF7 breast; HL-60(TB) leukemia; HCC-2998 colon; NCI-H522 lung; MDA-MB-435; BT-549 breast; PC-3 prostate; MDA-MB-231 breast.
Assay in all cases: DTP human tumour cell line panel, 48 h

Consider `O=C(/C=C/c1ccccc1)NNC(=O)c1c(Cl)c(Cl)c(Cl)c(Cl)c1-c1nc2ccccc2[nH]1`, for which the TGI with MDA-N is 45.4 µM; in the assay on MCF7 breast it was greater than 100 µM; in the assay on HL-60(TB) leukemia it was 50.7 µM; with HCC-2998 colon, 65.9 µM; in the assay on NCI-H522 lung it was 63.4 µM; with MDA-MB-435, greater than 100 µM. Besides, the TGI in the assay on BT-549 breast is 76.1 µM; with PC-3 prostate, greater than 100 µM.

For `O=C(C[n+]1ccc2ccccc2c1)c1ccc2ccc3ccccc3c2c1`, the TGI was determined as 10.8 µM in the assay with MDA-N; 11.3 µM with MCF7 breast; 3.37 µM in the assay with HCC-2998 colon; 21.8 µM in the assay with NCI-H522 lung; 7.75 µM in the assay on MDA-MB-435; 24 µM in the assay on BT-549 breast. Moreover, the TGI in the assay with PC-3 prostate and in the assay on MDA-MB-231 breast was 15.3 µM each time.

Take `O=c1[nH]nc(NNc2ccccc2)c2nnn(C3CCCCC3)c12`: the TGI in the assay with MDA-N, with MCF7 breast, in the assay on HL-60(TB) leukemia, with HCC-2998 colon, with MDA-MB-435 and in the assay on BT-549 breast was greater than 100 µM throughout. Further, the TGI in the assay with PC-3 prostate and in the assay with MDA-MB-231 breast was greater than 100 µM each time.

For `CCOC(=O)C1=NN(c2ccc(C)cc2)C2=CC(C)=NN(C)C(=S)N21`, the TGI in the assay with MDA-N is greater than 100 µM; in the assay with HL-60(TB) leukemia it was greater than 100 µM; with HCC-2998 colon it was greater than 100 µM; with NCI-H522 lung, 36.5 µM; in the assay on MDA-MB-435 it was greater than 100 µM; in the assay with BT-549 breast, greater than 100 µM. Further, the TGI with PC-3 prostate and with MDA-MB-231 breast was greater than 100 µM throughout.

For the molecule `NCCCCc1cc(O)c2c(c1O)C(=O)c1ccccc1C2=O`, the TGI with MDA-N came out at 28.6 µM; with MCF7 breast, 27.4 µM; in the assay with HCC-2998 colon, 28 µM; in the assay with NCI-H522 lung it was 23.7 µM; in the assay on MDA-MB-435, 43.6 µM; with BT-549 breast, 49.9 µM. Further, the figures for the TGI with PC-3 prostate and in the assay with MDA-MB-231 breast were 22.8 µM and 24.2 µM, respectively.

With `NCCSC(c1ccccc1)c1ccccc1`, the TGI with MDA-N is 34.2 µM; in the assay on MCF7 breast, 38 µM; in the assay with HL-60(TB) leukemia it was 0.793 µM; in the assay on NCI-H522 lung, 38.4 µM; in the assay with MDA-MB-435, 33.8 µM; with BT-549 breast, greater than 100 µM. Besides, the values for the TGI in the assay on PC-3 prostate and in the assay on MDA-MB-231 breast were 55.6 µM and 37.3 µM, respectively.

Turning to `Cc1nn(-c2ccccc2)c(C)c1/C=N/N=C1\SCC(=O)N1c1ccccc1`, the TGI is 59.6 µM with MDA-N; greater than 100 µM in the assay on MCF7 breast; 82.2 µM with HL-60(TB) leukemia; 52.8 µM in the assay on HCC-2998 colon; 55.3 µM in the assay on MDA-MB-435; 43 µM in the assay with BT-549 breast. The results for the TGI in the assay on PC-3 prostate and in the assay on MDA-MB-231 breast were 51.5 µM and greater than 100 µM, respectively.

For the molecule `COc1cc2c(cc1O)CC[C@@H]1[C@@H]2CC[C@]2(C)[C@@H](OCCN(C)C)CC[C@@H]12`, the GI50 in the assay on MCF7 breast is 0.17 µM; with HL-60(TB) leukemia, 0.1 µM; in the assay with HCC-2998 colon, 0.644 µM; in the assay on NCI-H522 lung it was 0.341 µM; in the assay with MDA-MB-435, 0.0997 µM; in the assay with MDA-MB-231 breast, 0.153 µM. The TGI with MCF7 breast came out at 0.884 µM; in the assay with HL-60(TB) leukemia, 0.232 µM; in the assay on HCC-2998 colon, 1.5 µM; with NCI-H522 lung, 1.3 µM; with MDA-MB-435 it was 0.208 µM; in the assay on MDA-MB-231 breast, 0.595 µM.

Regarding `CC(=O)C1=C(C)N(c2ccc(C)cc2)C2(O)C=CC(=O)C3C(=O)N(c4ccccc4)C(=O)C132` (stereo not given), the TGI in the assay on MCF7 breast is 53.7 µM; in the assay with HL-60(TB) leukemia it was 18.4 µM; in the assay with HCC-2998 colon it was 52.3 µM; in the assay on NCI-H522 lung it was 22 µM; in the assay on MDA-MB-435 it was greater than 100 µM; in the assay on BT-549 breast it was 39.8 µM. For the same molecule, the TGI was determined as 62.3 µM in the assay with PC-3 prostate and 42.8 µM with MDA-MB-231 breast.

As to `CC12CC3OC(=O)C1COC14OC5(C2C1=O)C(O)(CCC1C4CC(O)C2(O)CC=CC(=O)C12C)C(=O)OC35C` (stereo not given), the TGI with MDA-N, in the assay with MCF7 breast, in the assay on HL-60(TB) leukemia, in the assay with HCC-2998 colon, with NCI-H522 lung and with MDA-MB-435 was greater than 100 µM each time. Besides, the TGI in the assay on BT-549 breast, in the assay on PC-3 prostate and in the assay with MDA-MB-231 breast was greater than 100 µM in each case.

As to `CCC1CN(C(=O)c2ccccc2)C(Cc2c[nH]c3ccccc23)C(=O)C1CC(=O)OC` (stereo not given), the TGI in the assay on MCF7 breast, in the assay with HL-60(TB) leukemia, in the assay on NCI-H522 lung, in the assay on MDA-MB-435, in the assay on BT-549 breast and with PC-3 prostate was greater than 100 µM each time.

For the molecule `CCC(C)C1=C(OC(C)=O)[N+]2([O-])Oc3ccc(-c4c(OC(C)=O)c(OC(C)=O)c(-c5ccc(OC(C)=O)cc5)c(OC(C)=O)c4OC(C)=O)cc3OC2(C(C)CC)C(=O)N1OC(C)=O` (stereo not given), the TGI in the assay with MDA-N was greater than 50 µM; with MCF7 breast, greater than 50 µM; in the assay on HL-60(TB) leukemia, 19.7 µM; in the assay with NCI-H522 lung it was 17.5 µM; in the assay on MDA-MB-435, greater than 50 µM; in the assay on PC-3 prostate it was greater than 50 µM. In addition, the TGI in the assay with MDA-MB-231 breast is greater than 50 µM.

For `CCN(CC(=O)O)C(=O)c1cccnc1`, the TGI in the assay on MDA-N, in the assay with HCC-2998 colon, in the assay with NCI-H522 lung, in the assay with MDA-MB-435, in the assay on BT-549 breast and with PC-3 prostate was greater than 100 µM in each case. This molecule came in with a TGI with MDA-MB-231 breast greater than 100 µM.

Usually TGI stands for the concentration giving total growth inhibition. Read a low TGI as greater sensitivity of the cells. In general, GI50 refers to the concentration at which growth is held to half of that of the control.
